In patent US12599596B2, “Anti-tumor pharmaceutical composition based on immune checkpoint blockade and use thereof” (Shanghai Hui Tian Jin Ze Biotech Co., Ltd., priority 2023, dated 2026):

Legend:
Format in all cases: cell-based
[1] = system: PD-L1 in RKO colorectal cancer cells; experiment: PD-L1 expression by Western blotting; conditions: concentration-dependent at 5, 10, 20 μM, 24 h
Description: (§1) Different types of well-grown tumor cells (RKO colorectal cancer cells, H1975 lung cancer cells, and A549 lung cancer cells) with a density of 80% or more were respectively spread on a 6-well plate at a density of 5×10^4 cells/well, the volume of the suspension in each well was 2 mL, and the cells were subsequently placed in an incubator at 37° C. for culture. […] After the cells were continuously cultured for 24 h, the culture was terminated, and subsequent detection was conducted.
(§2) After the culture was terminated, the cells were collected and washed with cold PBS 2 times. After the PBS residue was removed, a proper amount of cell lysate was added for cracking, and the cells were incubated on ice for 15 min and then centrifuged on a 4° C. centrifuge at 12,000 rpm for 15 min. The supernatant was carefully aspirated, the protein concentration was measured via the BCA method, a corresponding amount of loading buffer was added, the cells were evenly shaken and incubated in a 100° C. water bath for 10 min, and finally, the sample was subjected to a protein immunoblotting experiment.

[2] = system: PD-L1 in A549 lung cancer cells; experiment: PD-L1 expression by Western blotting; conditions: concentration-dependent at 5, 10, 20 μM, 24 h
Description: as §1, §2

[3] = system: PD-L1 in H1975 lung cancer cells; experiment: PD-L1 expression by Western blotting; conditions: concentration-dependent at 5, 10, 20 μM, 24 h
Description: as §1, §2

RKO cells = experiment: In vitro killing of tumor cells by T cells (NK-92) with CBD, crystal violet; conditions: CBD 5, 10, 20 μM 12 h, then NK-92 cells 1:500, 24 h; vs control
Description: RKO cells in the logarithmic growth phase were inoculated into a 12-well plate at a density of 5×10^4 cells/mL and placed in a 5% CO2 incubator for growth adhering to a wall overnight. The supernatant was removed, CBD at different concentrations (0 μM, 5 μM, 10 μM, and 20 μM) was added, and the cells were coincubated for 12 h. NK-92 cells (T cells) were added at 1:500, the cells were cultured for 24 h, and a control group without the NK-92 cells was set at the same time. The supernatant was removed, PBS was used for washing 2 times, and 4% paraformaldehyde was added to fix the cells. Then, PBS was used for washing 2 times, crystal violet was added for dyeing for 30 min, and finally, redundant crystal violet was washed away with PBS, and photographing was performed to collect the data.

[4] = system: PD-L1 on H1975 lung cancer cell membrane; experiment: PD-L1 on cell membrane by flow cytometry; conditions: concentration-dependent 5, 10, 20 μM, 24 h
Description: (§3) • (1) Different types of tumor cells (RKO, HCT116 and HT29 colon cancer cells, and A549, H1975 and H460 lung cancer cells) in the logarithmic growth phase were respectively inoculated on a 6-well plate at an inoculum density of 2.5×10^5 cells/well with 2 mL/well and then placed in a cell incubator overnight incubation. The culture mixture was removed, CBD at different concentrations (0 μM, 5 μM, 10 μM, and 20 μM) was added for treatment for 24 h, the supernatant was removed, and the cells were washed with PBS 2 times, digested with pancreatin, centrifuged at 300×g and 4° C. for 5 min, and collected. The cells were washed with precooled PBS 2 times, centrifuged at 300×g and 4° C. for 5 min, and collected. The cells were washed 2 times with precooled PBS, 100 μL of PBS was added to resuspend the cells, an anti-PD-L1-Alexa Fluor 647 antibody was added, the cells were incubated at room temperature for 30 min and centrifuged at 300×g and 4° C. for 5 min, 300 μL of PBS was added to resuspend the cells in a flow tube, and an Alexa Fluor 647 signal was detected from the sample using a flow cytometer (excitation/emission wavelength of 647 nm/666 nm). • (2) The colorectal cancer cells (RKO) in the logarithmic growth phase were inoculated into a 6-well plate at a density of 2.5×10^5 cells/well, with a 2 mL volume of the suspension in each well. The plate was placed into a cell incubator for incubation overnight, the culture mixture was removed, 20 μM CBD was added for 12 h, the supernatant was removed, PBS was used for washing 2 times, paraformaldehyde was added for fixing for 15 min, 5% BSA was added for fixing for 1 h, PBST was used for washing 2 times, a PD-L1 antibody was added overnight incubation, a red fluorescent antibody was added for incubation at room temperature for 1 h, DAPI was added for staining for 10 min, and finally, a laser scanning confocal microscope was used for photographing and analysis. 4. Research of CBD on Enhancing In Vitro Killing of Tumor Cells by T Cells

[5] = system: PD-L1 on A549 lung cancer cell membrane; experiment: PD-L1 on cell membrane by flow cytometry; conditions: concentration-dependent 5, 10, 20 μM, 24 h
Description: as §3

[6] = system: PD-L1 on HCT116 colon cancer cell membrane; experiment: PD-L1 on cell membrane by flow cytometry; conditions: concentration-dependent 5, 10, 20 μM, 24 h
Description: as §3

[7] = system: PD-L1 on HT29 colon cancer cell membrane; experiment: PD-L1 on cell membrane by flow cytometry; conditions: concentration-dependent 5, 10, 20 μM, 24 h
Description: as §3

C=C(C)[C@@H]1CCC(C)=C[C@H]1c1c(O)cc(CCCCC)cc1O [CBD, cannabidiol]
expression of PD-L1 (Western blotting) [1]: significantly inhibited the expression of PD-L1 | expression of PD-L1 (Western blotting) [2]: significantly inhibited the expression of PD-L1 | expression of PD-L1 (Western blotting) [3]: significantly inhibited the expression of PD-L1 | viability of RKO cells in CBD+T cells coculture (RKO cells): significantly reduced the viability of RKO cells | expression of PD-L1 on the cell membrane (flow assay) [4]: decreased the expression of PD-L1 | expression of PD-L1 on the cell membrane (flow assay) [5]: decreased the expression of PD-L1 | expression of PD-L1 on the cell membrane (flow assay) [6]: decreased the expression of PD-L1 | expression of PD-L1 on the cell membrane (flow assay) [7]: decreased the expression of PD-L1
